Target: T1, proteinase K (PTA) (Parengyodontium album, UniProt P06873)
T1 construct: purchased Sigma-Aldrich
Test: Proteinase inhibitory activity
Type: biochemical
Details: compounds at 150 µg/mL
Description: Anti-inflammatory properties of the extracts were evaluated by their proteinase and lipoxygenase inhibitory activities as described. Briefly, PTA (0.06 mg) was dissolved in 2 mL of Tris HCl buffer (20 mM, pH 7.4) containing a suspension of each extract (100–600 µg/mL). The mixture was incubated at 37 °C for 5 min, and 1 mL of 4% BSA was added. Incubation was prolonged for 20 min, and afterwards 2 mL of 5% trichloroacetic acid was added to the mixture. After centrifugation (3000 rpm, 10 min, 4 °C) the absorbance was read at 210 nm against buffer as blank, and the percentage of proteinase inhibition activity was calculated. Experiments were performed in triplicate and averaged. The anti-inflammatory drug diclofenac (100–300 µg/mL) was used as a standard for comparison.

T1 sequence (P06873 106-384): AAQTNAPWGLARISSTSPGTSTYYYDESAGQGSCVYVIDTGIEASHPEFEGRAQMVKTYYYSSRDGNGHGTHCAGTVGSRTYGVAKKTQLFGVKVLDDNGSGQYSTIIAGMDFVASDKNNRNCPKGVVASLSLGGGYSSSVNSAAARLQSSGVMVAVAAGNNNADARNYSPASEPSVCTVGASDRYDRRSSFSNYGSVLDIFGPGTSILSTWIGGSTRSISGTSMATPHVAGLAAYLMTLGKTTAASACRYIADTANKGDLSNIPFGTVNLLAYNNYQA

Molecule `O=C(O)Cc1ccccc1Nc1c(Cl)cccc1Cl` [Diclofenac] has an inhibition at 150 µg/mL of 64 ± 2%.

Source: paper PMC7910904, “Improving the Antioxidant Properties of Calophyllum inophyllum Seed Oil from French Polynesia: Development and Biological Applications of Resinous Ethanol-Soluble Extracts” (Antioxidants, 2021)
